Test results published in publication PMC10475565 (2023).

Experiments:
d(TG4T) (DNA, G4) TGGGGT [1] = assay: ITC; settings: 60 mM KCl, 10 mM sodium cacodylate, 0.5 mM EDTA, pH 7.0, 20 °C
[2] = test system: d(UG4T) (DNA, G4, 2'-deoxyuridine at 1) UGGGGT; assay: ITC; settings: 60 mM KCl; 10 mM sodium cacodylate, 0.5 mM EDTA, pH 7.0, 20 °C
[3] = test system: d(T2G4T2) (DNA, G4) TTGGGGTT; assay: ITC; settings: 60 mM KCl; 10 mM sodium cacodylate, 0.5 mM EDTA, pH 7.0, 20 °C
[4] = test system: d(T3G4T3) (DNA, G4) TTTGGGGTTT; assay: ITC; settings: 60 mM KCl; 10 mM sodium cacodylate, 0.5 mM EDTA, pH 7.0, 20 °C; one binding event, isotherm not fitted
[5] = test system: d(T4G4T4) (DNA, G4) TTTTGGGGTTTT; assay: ITC; settings: 90 mM KCl; 10 mM sodium cacodylate, 0.5 mM EDTA, pH 7.0, 20 °C; one binding event, isotherm not fitted
[6] = test system: CEB1 (DNA, G4) AGGGGGGAGGGAGGGTGG; assay: ITC; settings: 60 mM KCl; 10 mM sodium cacodylate, 0.5 mM EDTA, pH 7.0, 20 °C
d(TG4T) (DNA, G4) TGGGGT [7] = assay: fluorescent intercalator displacement; settings: 10 mM sodium cacodylate, 0.5 mM EDTA, pH 7.0, 21-23 °C, thiazole orange displaced, 1 μM neomycin, 1 μM quadruplex

| Ka1 (d(TG4T) (DNA, G4) TGGGGT [1]; site 1 of 2) | Ka [2] | Ka [3] [M⁻¹] | binding [4] | binding [5] | association constant [6] [M⁻¹] | % fluorescence change (d(TG4T) (DNA, G4) TGGGGT [7]; 30 mM NaCl) | % fluorescence change (d(TG4T) (DNA, G4) TGGGGT [7]; 60 mM KCl) | binding (d(TG4T) (DNA, G4) TGGGGT [1]; isotherm could not be fitted, 300 μM titrant) | Compound |
| --- | --- | --- | --- | --- | --- | --- | --- | --- | --- |
| 2.10 ± 0.80 × 10^8 M^-1 | 1.23 ± 0.05 × 10^6 M^-1 | 59000 | yes | yes | 723000 | ~ 25% | ~ 15% | – | NC[C@@H]1O[C@H](O[C@H]2[C@@H](O)[C@H](O[C@@H]3[C@@H](O)[C@H](N)C[C@H](N)[C@H]3O[C@H]3O[C@H](CN)[C@@H](O)[C@H](O)[C@H]3N)O[C@@H]2CO)[C@H](N)[C@@H](O)[C@@H]1O |
| – | – | – | – | – | – | – | – | weak | NC[C@@H]1O[C@H](O[C@H]2[C@@H](O)[C@H](O[C@@H]3[C@@H](O)[C@H](N)C[C@H](N)[C@H]3O[C@H]3O[C@H](CO)[C@@H](O)[C@H](O)[C@H]3N)O[C@@H]2CO)[C@H](N)[C@@H](O)[C@@H]1O |
